Assay [1] has as its target T1, PCPH (Sphingobium chlorophenolicum, UniProt P42535). The assay is described as follows: PCP concentration-dependent catalytic current, immobilised PCPH electrode.
Assay [2] addresses T2, pentachlorophenol hydroxylase (PCPH) (Sphingobium chlorophenolicum, UniProt P42535).
T2 sequence (P42535 2-538): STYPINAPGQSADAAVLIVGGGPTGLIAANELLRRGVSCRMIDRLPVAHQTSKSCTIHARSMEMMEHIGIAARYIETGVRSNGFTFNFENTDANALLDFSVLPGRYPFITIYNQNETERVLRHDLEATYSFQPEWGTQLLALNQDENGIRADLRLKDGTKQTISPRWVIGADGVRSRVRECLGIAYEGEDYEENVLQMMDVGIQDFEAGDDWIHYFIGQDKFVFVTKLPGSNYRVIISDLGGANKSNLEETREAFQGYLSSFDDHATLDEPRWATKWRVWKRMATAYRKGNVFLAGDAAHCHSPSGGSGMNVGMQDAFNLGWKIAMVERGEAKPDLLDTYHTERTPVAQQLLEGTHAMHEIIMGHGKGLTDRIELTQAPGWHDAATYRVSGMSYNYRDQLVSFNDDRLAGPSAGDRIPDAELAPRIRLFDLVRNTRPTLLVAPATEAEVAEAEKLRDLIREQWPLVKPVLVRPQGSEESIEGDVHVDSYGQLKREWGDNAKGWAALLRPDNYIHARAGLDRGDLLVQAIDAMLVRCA
The settings on record: earlier investigation of the substrate range (Orser and co-workers); cited from earlier work.

Assay [3] concerns PCPH. The note with it: -800 mV, aerobic, after 30 mins; cyclic voltammetry and gas chromatography of the organic extract.
For assay [4], the target named is T1, PCPH. The assay is described as follows: Substrate range of PCPH, oxidation determined by gas chromatography. The class given is biochemical, Flavobacterum sp. (ATCC 53874). Further details: made in house; host or cells: E. coli strain DH5a (tac promoter vector). An excerpt:
Samples from the environment contain many other compounds which may be substrates for PCPH and therefore interfere with PCP biosensing. The substrate range of the PCPH enzyme was therefore investigated. The compounds tested as possible substrates were toluene, biphenyl, phenylcyclohexane, 1-phenylcyclohexene, diphenylmethane, bibenzyl and hexadecane, included as a model long-chain alkane.

On to `Oc1c(Cl)c(Cl)c(Cl)c(Cl)c1Cl` [PCP, pentachlorophenol], for which the “linear range of concentration dependence of the catalytic current” value is “ca. 8 μM” in assay [1] (PCPH 87 μM in the solution evaporated on the electrode, FIG. 1) and “ca. 25 μM” in assay [1] (PCPH 196 μM in the solution evaporated on the electrode, FIG. 2). Also, the “substrate of PCPH (oxidised / attacked)” value in assay [2] is listed as “oxidised by PCPH”. For the same compound, in assay [3], the “product of electrochemically driven oxidation by PCPH” value is recorded as “showed the presence of TeCH”.

In the case of `c1ccc(C2CCCCC2)cc1` [phenylcyclohexane], the “oxidised by PCPH (substrate or not)” value in assay [4] was “None of the compounds except bibenzyl was oxidised by PCPH”.

In the case of `c1ccc(Cc2ccccc2)cc1` [diphenylmethane], the “oxidised by PCPH (substrate or not)” value in assay [4] is “None of the compounds except bibenzyl was oxidised by PCPH”.

For the compound `c1ccc(-c2ccccc2)cc1` [biphenyl], in assay [4], the “oxidised by PCPH (substrate or not)” value was “None of the compounds except bibenzyl was oxidised by PCPH”.

As for `c1ccccc1` [benzene], the “substrate of PCPH (oxidised / attacked)” value in assay [2] is reported as “not substrates”.

In the case of `Clc1cc(Cl)c(Cl)c(Cl)c1Cl` [pentachlorobenzene], the “substrate of PCPH (oxidised / attacked)” value in assay [2] is recorded as “not”.

`C1=C(c2ccccc2)CCCC1` [1-phenylcyclohexene]: in assay [4], the “oxidised by PCPH (substrate or not)” value is given as “None of the compounds except bibenzyl was oxidised by PCPH”.

As to `c1ccc(CCc2ccccc2)cc1` [bibenzyl], the “oxidised by PCPH (substrate or not)” value in assay [4] is recorded as “a very small amount of product was detected”.

In the case of `CCCCCCCCCCCCCCCC` [hexadecane], in assay [4], the “oxidised by PCPH (substrate or not)” value is “None of the compounds except bibenzyl was oxidised by PCPH”.

As to `Oc1cccc(Cl)c1Cl` [2,3-dichlorophenol], the “substrate of PCPH (oxidised / attacked)” value in assay [2] was “poor substrate”.

For the compound `Cc1ccccc1` [toluene], in assay [4], the “oxidised by PCPH (substrate or not)” value is reported as “None of the compounds except bibenzyl was oxidised by PCPH”.

The values are drawn from US6511592B1, “Biosensor for pentachlorophenol” (ISIS Innovation Limited, priority 1998, dated 2003).
